This note sets out measurements from US20240217990A1 (Gilead Sciences, Inc., priority 2021, published 2024).

In one assay the target is T1, TLR7 (Homo sapiens, UniProt Q9NYK1).
T1 construct: Human peripheral blood mononuclear cells (PBMCs) consist of lymphocytes, monocytes and dendritic cells that express TLR7, TLR8 and TLR9; endogenous in cells; host or cells: cryopreserved human PBMCs from healthy donors
T1 sequence (Q9NYK1 27-1049): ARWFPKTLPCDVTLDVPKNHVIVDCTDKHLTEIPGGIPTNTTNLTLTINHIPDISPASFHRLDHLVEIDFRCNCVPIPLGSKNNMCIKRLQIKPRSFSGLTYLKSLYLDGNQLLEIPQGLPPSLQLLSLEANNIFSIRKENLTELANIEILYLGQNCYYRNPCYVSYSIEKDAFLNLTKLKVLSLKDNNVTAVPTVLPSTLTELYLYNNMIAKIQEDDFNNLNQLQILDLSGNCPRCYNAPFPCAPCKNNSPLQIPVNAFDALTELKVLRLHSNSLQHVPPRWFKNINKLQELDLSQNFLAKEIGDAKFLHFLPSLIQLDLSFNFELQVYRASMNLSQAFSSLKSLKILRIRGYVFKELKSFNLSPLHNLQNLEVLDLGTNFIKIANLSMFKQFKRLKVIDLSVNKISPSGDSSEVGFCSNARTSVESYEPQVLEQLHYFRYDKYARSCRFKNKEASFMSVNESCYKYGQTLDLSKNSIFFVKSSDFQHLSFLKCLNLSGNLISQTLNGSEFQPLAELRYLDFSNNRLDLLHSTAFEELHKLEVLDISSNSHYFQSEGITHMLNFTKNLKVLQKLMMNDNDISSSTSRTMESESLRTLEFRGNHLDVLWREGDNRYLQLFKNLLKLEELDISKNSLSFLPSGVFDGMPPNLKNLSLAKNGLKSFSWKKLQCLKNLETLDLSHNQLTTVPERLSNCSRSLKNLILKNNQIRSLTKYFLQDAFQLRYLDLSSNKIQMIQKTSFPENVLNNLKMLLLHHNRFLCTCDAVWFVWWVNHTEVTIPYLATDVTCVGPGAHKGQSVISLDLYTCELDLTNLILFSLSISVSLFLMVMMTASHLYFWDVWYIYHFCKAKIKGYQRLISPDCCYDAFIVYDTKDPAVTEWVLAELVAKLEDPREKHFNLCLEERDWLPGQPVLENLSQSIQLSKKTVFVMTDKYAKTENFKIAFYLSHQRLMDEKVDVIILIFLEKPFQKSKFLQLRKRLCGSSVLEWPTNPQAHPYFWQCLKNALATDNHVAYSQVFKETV
Put plainly: TLR7 human PBMC cell-based assay (antagonist, GS-986 stimulated cytokine release). The conditions noted are these: human PBMCs; TLR7 agonist GS-986 400 nM, 6 hours; cytokines (IL-6 and IFNα) in supernatant; read-out: TLR-7 EC50. In a few lines:
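Cryopreserved healthy-donor PBMCs (100,000/well, RPMI-1640 + 10% FBS) pre-incubated 1 h at 37 °C with antagonist (10-point dose response, quadruplicate), then stimulated 6 h with GS-986 at 400 nM final. Supernatant IL-6 and IFNα measured by electrochemiluminescence immunoassay; EC50 from sigmoidal fit.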

A further assay has as its target T2, TLR8 (Homo sapiens, UniProt Q9NR97).
T2 construct: Human peripheral blood mononuclear cells (PBMCs) consist of lymphocytes, monocytes and dendritic cells that express TLR7, TLR8 and TLR9; endogenous in cells; host or cells: cryopreserved human PBMCs from healthy donors
T2 sequence (Q9NR97 27-1041): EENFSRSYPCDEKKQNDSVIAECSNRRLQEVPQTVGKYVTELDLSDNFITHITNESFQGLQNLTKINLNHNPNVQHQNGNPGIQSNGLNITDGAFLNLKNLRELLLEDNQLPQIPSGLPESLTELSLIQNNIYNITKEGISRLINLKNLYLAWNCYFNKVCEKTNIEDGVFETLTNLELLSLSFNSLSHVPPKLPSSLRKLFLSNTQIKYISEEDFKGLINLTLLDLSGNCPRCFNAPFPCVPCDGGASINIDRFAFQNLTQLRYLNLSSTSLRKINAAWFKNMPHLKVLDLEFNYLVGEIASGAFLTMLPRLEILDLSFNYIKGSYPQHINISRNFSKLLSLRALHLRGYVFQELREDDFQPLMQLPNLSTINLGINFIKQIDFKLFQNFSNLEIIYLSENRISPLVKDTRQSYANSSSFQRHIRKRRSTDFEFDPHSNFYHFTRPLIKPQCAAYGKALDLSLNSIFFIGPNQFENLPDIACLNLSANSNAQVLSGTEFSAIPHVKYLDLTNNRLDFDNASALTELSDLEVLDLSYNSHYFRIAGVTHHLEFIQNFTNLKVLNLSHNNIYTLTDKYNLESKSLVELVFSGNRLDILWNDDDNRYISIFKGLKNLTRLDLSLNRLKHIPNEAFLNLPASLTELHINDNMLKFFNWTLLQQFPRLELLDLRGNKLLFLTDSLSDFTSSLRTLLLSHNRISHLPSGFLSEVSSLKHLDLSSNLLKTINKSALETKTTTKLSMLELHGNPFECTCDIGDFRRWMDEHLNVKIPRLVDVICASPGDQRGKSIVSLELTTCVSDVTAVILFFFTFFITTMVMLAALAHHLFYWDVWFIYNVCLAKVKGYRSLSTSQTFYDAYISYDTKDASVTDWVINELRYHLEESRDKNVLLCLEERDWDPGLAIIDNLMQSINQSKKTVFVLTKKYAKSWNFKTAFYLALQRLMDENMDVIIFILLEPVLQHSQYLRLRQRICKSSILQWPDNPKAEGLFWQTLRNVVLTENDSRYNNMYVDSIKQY
The assay can be described thus: TLR8 human PBMC cell-based assay (antagonist, Compound A stimulated cytokine release). The conditions noted are these: human PBMCs; TLR8 agonist Compound A 800 nM, 6 hours; cytokines (TNFa and IL 12p40) in supernatant; read-out: TLR-8 EC50. In a few lines: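 Cryopreserved donor PBMCs (100,000/well, RPMI + 10% FBS) were preincubated 1 h with antagonist (10-point dose response, quadruplicate), then stimulated with Compound A (800 nM final) for 6 h at 37 °C. TNFa and IL-12p40 in supernatants were measured by electrochemiluminescence; sigmoidal fits gave EC50.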

Regarding `CCc1c(-c2cc(C)c3ncnn3c2)[nH]c2cc(-c3nc4ccc(N5CCNCC5)nc4[nH]3)sc12` [Example 244, 6-ethyl-5-(8-methyl-[1,2,4]triazolo[1,5-a]pyridin-6-yl)-2-(5-(piperazin-1-yl)-311-imidazo[4,5-b]pyridin-2-yl)-4H-thieno[3,2-b]pyrrole], the EC50 is 333 nM on TLR7 and 33.1 nM on TLR8.
For the molecule `CCc1c(-c2cc(C)c3ncnn3c2)[nH]c2cc(-c3nc4ccc(N5CCNCC5)cc4[nH]3)sc12` [Example 245], the EC50 at TLR7 worked out at 337 nM; at TLR8, 66.7 nM.
Regarding `Cc1cc(-c2[nH]c3cc(C(=O)N(C)C4CCC(N5CC(F)(F)C5)CC4)sc3c2C(C)C)cn2ncnc12` (stereo not shown) [Example 246, N-(4-(3,3-difluoroazetidin-1-yl)cyclohexyl)-6-isopropyl-N-methyl-5-(8-methyl-[1,2,4]triazolo[1,5-a]pyridin-6-yl)-4H-thieno[3,2-b]pyrrole-2-carboxamide], the EC50 at TLR7 is 53.4 nM; on TLR8, 191 nM.
On to `Cc1cc(-c2[nH]c3cc(C(=O)N(C)C4CCC(N5CC6CCC(C5)O6)CC4)sc3c2C(C)C)cn2ncnc12` (stereo not shown) [Example 248], for which the concentration giving a half-maximal response (EC50) on TLR7 was found to be 7.6 nM; at TLR8 it was 19.5 nM.
In the same order, the values of `Cc1cc(-c2[nH]c3cc(C(=O)N(C)C4CCC(N5CCN(CC(F)F)CC5)CC4)sc3c2C(C)C)cn2ncnc12` (stereo not shown) [Example 249] are 3 nM and 12 nM.
For `Cc1cc(-c2[nH]c3cc(C(=O)N(C)C4CCC(N5CC(F)C5)CC4)sc3c2C(C)C)cn2ncnc12` (stereo not shown) [Example 250], in that order: 6.6 nM and 11 nM.
Take `Cc1cc(-c2[nH]c3cc(C(=O)N(C)C4CCC(N5CC(OC(F)(F)F)C5)CC4)sc3c2C(C)C)cn2ncnc12` (stereo not shown) [Example 251]: the EC50 stood at 59.6 nM on TLR7 and 105 nM on TLR8.
In the same order, the values of `Cc1cc(-c2[nH]c3cc(C(=O)N(C)C4CCC(N5CC6(C5)CS(=O)(=O)C6)CC4)sc3c2C(C)C)cn2ncnc12` (stereo not shown) [Example 252] are 9.6 nM and 11.2 nM.
For `Cc1cc(-c2[nH]c3cc(C(=O)N(C)C4CCC(N5CC6(COC6)C5)CC4)sc3c2C(C)C)cn2ncnc12` (stereo not shown) [Example 253], in that order: 7.5 nM and 8.5 nM.
As to `Cc1cc(-c2[nH]c3cc(C(=O)N(C)C4CCC(N5CCC(F)(F)C5)CC4)sc3c2C(C)C)cn2ncnc12` (stereo not shown) [Example 254], the results for the EC50 at TLR7 and at TLR8 were 34.8 nM and 136 nM, respectively.
For `Cc1cc(-c2[nH]c3cc(C4CCN(CCS(C)(=O)=O)CC4)sc3c2C(C)C)cn2ncnc12` [Example 255, 6-isopropyl-5-(8-methyl-[1,2,4]triazolo[1,5-a]pyridin-6-yl)-2-(1-(2-(methylsulfonyl)ethyl)piperidin-4-yl)-4H-thieno[3,2-b]pyrrole], in that order: 4.1 nM and 3.2 nM.
With `Cc1cc(-c2[nH]c3cc(C4CCC(N5CCC(F)C5)CC4)sc3c2C(C)C)cn2ncnc12` (stereo not shown) [Example 256, 2-(4-(3-fluoropyrrolidin-1-yl)cyclohexyl)-6-isopropyl-5-(8-methyl-[1,2,4]triazolo[1,5-a]pyridin-6-yl)-4H-thieno[3,2-b]pyrrole], the EC50 stood at 0.2 nM on TLR7 and 1.8 nM at TLR8.
In the same order, the values of `Cc1cc(-c2[nH]c3cc(C4CCC(N5CCC(O)C5)CC4)sc3c2C(C)C)cn2ncnc12` (stereo not shown) [Example 257] are 0.4 nM and 9.6 nM.
Take `Cc1cc(-c2[nH]c3cc(C4CCC(N5CCC(OC(F)F)C5)CC4)sc3c2C(C)C)cn2ncnc12` (stereo not shown) [Example 258]: the figures for the EC50 on TLR7 and at TLR8 were 2.3 nM and 11.9 nM, respectively.
In the same order, the values of `Cc1cc(-c2[nH]c3cc(C4CCC(N5CC6(COC6)C5)CC4)sc3c2C(C)C)cn2ncnc12` (stereo not shown) [Example 260] are 0.3 nM and 2 nM.
For the molecule `Cc1cc(-c2[nH]c3cc(C4CCC(NC5CC6CC5O6)CC4)sc3c2C(C)C)cn2ncnc12` (stereo not shown) [Example 261], the values for the EC50 on TLR7 and on TLR8 were 2.2 nM and 9.7 nM, respectively.
For `Cc1cc(-c2[nH]c3cc(-c4cn(C5CCNCC5)nn4)sc3c2C(C)C)cn2ncnc12` [Example 263, 6-isopropyl-5-(8-methyl-[1,2,4]triazolo[1,5-a]pyridin-6-yl)-2-(1-(piperidin-4-yl)-1H-1,2,3-triazol-4-yl)-4H-thieno[3,2-b]pyrrole], in that order: 0.3 nM and 6 nM.
For `Cc1cc(-c2[nH]c3cc(-c4cn(C5CCN(CCO)CC5)nn4)sc3c2C(C)C)cn2ncnc12` [Example 264, 2-(4-(4-(6-isopropyl-5-(8-methyl-[1,2,4]triazolo[1,5-a]pyridin-6-yl)-4H-thieno[3,2-b]pyrrol-2-yl)-1H-1,2,3-triazol-1-yl)piperidin-1-yl)ethan-1-ol], in that order: 1.8 nM and 1.6 nM.
For `Cc1cc(-c2[nH]c3cc(CN4CCN(C)CC4)sc3c2C(C)C)cn2ncnc12` [Example 265, 6-isopropyl-5-(8-methyl-[1,2,4]triazolo[1,5-a]pyridin-6-yl)-2-((4-methylpiperazin-1-yl)methyl)-4H-thieno[3,2-b]pyrrole], in that order: 1.7 nM and 8.2 nM.
As to `Cc1c(-c2[nH]c3cc(CN4CCC(C)(O)CC4)sc3c2C(C)C)cn2ncnc2c1C` [Example 266], the EC50 on TLR7 worked out at 2.3 nM; at TLR8, 1.2 nM.
For `Cc1c(-c2[nH]c3cc(CN4CCC(O)(C(F)(F)F)CC4)sc3c2C(C)C)cn2ncnc2c1C` [Example 267], in that order: 37.5 nM and 4.8 nM.
In the same order, the values of `Cc1cc(-c2[nH]c3cc(C(=O)N(C)C4CCN(CCC(F)(F)F)CC4)sc3c2C(C)C)cn2ncnc12` [Example 269, 6-isopropyl-N-methyl-5-(8-methyl-[1,2,4]triazolo[1,5-a]pyridin-6-yl)-N-[1-(3,3,3-trifluoropropyl)-4-piperidyl]-4H-thieno[3,2-b]pyrrole-2-carboxamide] are 26.5 nM and 14.7 nM.
In the same order, the values of `Cc1cc(-c2[nH]c3cc(CN4CCC(C)(O)CC4)sc3c2C(C)C)cn2ncnc12` [Example 270, 1-((6-Isopropyl-5-(8-methyl-[1,2,4]triazolo[1,5-a]pyridin-6-yl)-4H-thieno[3,2-b]pyrrol-2-yl)methyl)-4-methylpiperidin-4-ol] are 8.2 nM and 3 nM.

What is called EC50 is the concentration giving half of the maximal effect.
